Tests used:
[1] = test system: C. clostridioforme; assay: Activity spectrum at 200 μM, C. clostridioforme; format: cell-based, Clostridium clostridioforme
Procedure: (§1) SM activity spectrum: The 128 selected SMs were tested for antimicrobial effects on nine different serotypes frequently implicated in foodborne gastroenteritis outbreaks. Later in the study, the four best SMs were tested against twelve beneficial/commensal gut bacteria. Both screens were performed at 200 μM as described in the primary screening. Growth conditions for each strain are described in Table 1.

[2] = test system: C. jejuni 81-176; assay: Activity on avian pathogens at 200 μM, C. jejuni; format: cell-based, Campylobacter jejuni
Procedure: FIGS. 1(A-E). Selection of potent Salmonella growth inhibitors. FIG. 1A: High-throughput screening of 4182 SMs against S. typhimurium WT at 200 μM. Negative value: growth inhibition; Positive value: growth stimulation compared to S. typhimurium growth not treated. The black line represents growth inhibition caused by 2% DMSO. FIG. 1B: Activity of 19 S. typhimurium growth inhibitors against additional Salmonella serotypes. Light grey cells: total growth inhibition; dark grey cells: bacterial growth observed; black cells: not determined. FIG. 1C: Dose-response assays of the selected 19 SMs against S. typhimurium WT. […] The black line represents a cut off of nine serotypes killed per SM. FIG. 1E: Activity spectra of the selected four SMs at 200 μM each on several avian-pathogens (Campylobacter jejuni, Escherichia coli APEC, and Mycoplasma gallisepticum) and beneficial gut bacteria (remaining species). E. coli APEC refers to Avian Pathogenic E. coli and includes E. coli O1, O2, O8, O15, O18, O35, O78, O109, and O115. Light grey cells: cidal effect; dark grey cells: bacterial growth observed. Left side: phylogenetic tree based on NCBI taxonomic ID built with PhyloT software.
The selected four SMs were tested on twelve beneficial-commensal gut bacteria at 200 μM (FIG. 1E). […] These four SMs were also growth inhibitors of other avian pathogens at 200 μM (unpublished data, FIG. 1E). […]

[3] = test system: chicken red blood cells; assay: Hemolytic activity in chicken RBCs; format: cell-based; details: 200 μM, one-hour treatment
Procedure: Briefly, 200 μl of 10% sheep red blood cells (RBCs; LAMPIRE Biological Laboratories, Pipersville, PA) suspension was incubated with 1 μl of SMs (200 μM) for one hour at 37° C. in a sterile, non-treated, flat bottom plate 96-well. After incubation, the plate was centrifuged at 4000 rpm for 5 min at 4° C., then placed on ice for five min. 100 μL of the supernatant was transferred into a new sterile, treated, flat bottom 96-well plate, and the OD was measured at 540 nm. For this experiment, 2% DMSO (negative control) and 0.1% Triton-100X (positive control) were used. % Hemolysis=(OD540 SM−OD540 DMSO)/(OD540 1× triton−OD540 PBS)×100. Similar experiment was performed with chicken RBCs (OARDC, Ohio).

[4] = test system: S. typhimurium WT internalized in HD11 cells; assay: S. typhimurium intracellular survival in infected HD11 cells; format: cell-based; details: Salmonella enterica
Procedure: Effect of the four SMs on S. typhimurium intracellular survival in cells lines: The ability of four SMs to clear S. typhimurium WT […] was evaluated using three cell lines (Caco-2 cells, HD11, and THP-1 cells). The Salmonella intracellular survival as assessed as described (13). A multiplicity of infection “MOI” of 10 was used. Infected cells were treated with 1 μl of SMs (final concentration ranged between 100 μM and 6.25 μM) at 37° C. for 24 hrs in humidified, 5% CO2 incubator. Following incubation, cells were washed once with 150 μl of 1×PBS, lysed with 0.1% Triton-100X, serial ten-fold diluted in 1×PBS, and plated on agar plate. Plates were incubated at 37° C. for 24 hrs to determine the intracellular survival. Cells not infected and not treated, and cells infected and treated with 2% DMSO were used as controls.

[5] = test system: biofilm-protected S. typhimurium WT; assay: MBEC-HTP assay on biofilm-protected S. typhimurium; format: cell-based, Salmonella enterica subsp. enterica serovar Typhimurium LT2; details: 18 hrs incubation, 0.2×MBC to 4×MBC
Procedure: Antimicrobial susceptibility testing on biofilm-protected S. typhimurium using the MBEC™-HTP assay: The antimicrobial efficacy of the four SMs was tested once the S. Typhimurium WT was protected by the […] biofilm matrix. The experiment was performed as described by the manufacturer (innovotech.ca/MBEC_HTPInstructions_Rev1.pdf). Briefly, 150 μl of an overnight suspension of S. typhimurium WT normalized at 0.05 OD600 in LB medium was transferred into each well of a sterile, non-treated, flat bottom 96-wells plate. The plate was covered using the lid containing the pegs (innovotech; 19111), sealed with parafilm, and incubated for 36 hrs at 37° C. […] The plate was incubated for 18 hrs at 37° C., 110 rpm in the dark. After incubation, the lid was transferred into a new 96-wells plate containing 200 μl of sterile water and sonicated for 60 min at room temperature (Aquasonic model 50HT, VWR). Then the supernatant was ten-fold serial diluted, plated in agar plate, and incubated at 37° C. for 36 hrs. The lowest SM concentration giving a complete clearance was considered as the minimum biofilm eradication concentration (MBEC).

[6] = test system: B. thetaiolaomicron; assay: Activity spectrum at 200 μM, B. thetaiotaomicron; format: cell-based
Procedure: as §1

[7] = test system: B. adolescentis; assay: Activity spectrum at 200 μM, B. adolescentis; format: cell-based, Bifidobacterium adolescentis
Procedure: as §1

[8] = test system: B. longum; assay: Activity spectrum at 200 μM, B. longum; format: cell-based, Bifidobacterium longum
Procedure: as §1

[9] = test system: E. faecalis; assay: Activity spectrum at 200 μM, E. faecalis; format: cell-based, Enterococcus faecalis
Procedure: as §1

[10] = test system: L. brevis; assay: Activity spectrum at 200 μM, L. brevis; format: cell-based, Lactobacillus brevis
Procedure: as §1

[11] = test system: L. rhamnosus GG; assay: Activity spectrum at 200 μM, L. rhamnosus GG; format: cell-based, Lactobacillus rhamnosus
Procedure: as §1

[12] = test system: PhoP regulon in S. typhimurium; details: four HTS, PubChem AID #1863, #1981, #2253, #2401; cited from earlier work

SMILES | growth effect on C. clostridioforme [1] | effect against C. jejuni 81-176 [2] | hemolytic activity in chicken RBCs [3] | IC50 ([4]; TYPHIMURIUM, HD11, read-out: IC 50% (μm), HD11 cells) [µM] | MBC ([4]; S. Typhimurium-infected HD11 cells, 24 hrs treatment) [µM] | concentration killing biofilm-protected Salmonella [5] [×MBC] | growth effect on B. thetaiolaomicron [6] | growth effect on B. adolescentis [7] | growth effect on B. longum [8] | growth effect on E. faecalis [9] | growth effect on L. brevis [10] | growth effect on L. rhamnosus GG [11] | inhibition of the PhoP regulon in S. typhimurium [12]
CC1CCC(C(C)C)C(OC(=O)Cn2c[n+](CC(=O)OC3CC(C)CCC3C(C)C)c3ccccc32)C1.[Cl-] (stereo not drawn) [SM1, 1,3-bis{2-[(2-isopropyl-5-methylcyclohexyl)oxy]-2-oxoethyl}-1H-3,1-benzimidazol-3-ium chloride] | no growth inhibition effect | bactericidal effects | > 50% | < 6.25 | 12.5 | – | – | – | – | – | – | – | –
CCCCCCCCCCCCCCCCn1c[n+](C)c2ccccc21.[Br-] [SM4, 1-hexadecyl-3-methyl-1H-3,1-benzimidazol-3-ium bromide] | – | – | – | – | – | 0.6 | – | – | – | – | – | – | –
CCOc1cc(/C=N/N=C(N)N)ccc1OCc1ccc(Cl)cc1 [SM5, N″-{4-[(4-chlorobenzyl)oxy]-3-ethoxybenzylidene}carbonohydrazonic diamide] | – | – | lower than 1% | – | – | 0.4 | no effect | no effect | no effect | no effect | no effect | no effect | direct or indirect inhibitor

Reference: US12161630B2, “Methods to control infection using new generation small molecule growth inhibitors” (priority 2017, dated 2024)
